Data as given in ChEMBL document CHEMBL3046111, “Synthesis and insecticidal activity of 1,2,4-oxadiazole and 1,2,4-thiadiazole derivatives” (2011).

Key:
[1] = test system: Nephotettix cincticeps; test: Insecticidal activity against Nephotettix cincticeps (green rice leafhopper) fourth instar larvae reared on compound pre-treated rice seedlings assessed as insect mortality at 10 ppm measured after 7 days; format: functional
[2] = test system: Nilaparvata lugens; test: Insecticidal activity against imidacloprid-sensitive Nilaparvata lugens (brown planthopper) fourth-instar larvae reared on compound pre-treated rice seedlings assessed as insect mortality at 200 ppm measured after 7 days; format: functional
[3] = test system: Aphis craccivora; test: Insecticidal activity against Aphis craccivora (cowpea aphid) apterous adults reared on broad bean seedlings followed by compound spraying at 200 ppm assessed as insect mortality measured after 4 days; format: functional; conditions: 96 h
[4] = test system: Nephotettix cincticeps; test: Insecticidal activity against Nephotettix cincticeps (green rice leafhopper) fourth instar larvae reared on compound pre-treated rice seedlings assessed as insect mortality at 100 ppm measured after 7 days; format: functional
[5] = test system: Nilaparvata lugens; test: Insecticidal activity against imidacloprid-sensitive Nilaparvata lugens (brown planthopper) fourth-instar larvae reared on compound pre-treated rice seedlings assessed as insect mortality at 10 ppm measured after 7 days; format: functional
[6] = test system: Nilaparvata lugens; test: Insecticidal activity against imidacloprid-sensitive Nilaparvata lugens (brown planthopper) fourth-instar larvae reared on compound pre-treated rice seedlings assessed as insect mortality at 100 ppm measured after 7 days; format: functional
[7] = test system: Nilaparvata lugens; test: Insecticidal activity against imidacloprid-resistant Nilaparvata lugens (brown plant hopper) fourth-instar larvae reared on compound pre-treated rice seedlings assessed as insect mortality at 1 ppm measured after 7 days; format: functional
[8] = molecular target: T1, Muscarinic acetylcholine receptor DM1 (Drosophila melanogaster) (UniProt P16395); test: Inhibition of [3H]NMS from mAChR in Musca domestica (house fly) nerve-cord membranes at […] incubated at 21 degC for 60 min
T1 sequence (whole entry): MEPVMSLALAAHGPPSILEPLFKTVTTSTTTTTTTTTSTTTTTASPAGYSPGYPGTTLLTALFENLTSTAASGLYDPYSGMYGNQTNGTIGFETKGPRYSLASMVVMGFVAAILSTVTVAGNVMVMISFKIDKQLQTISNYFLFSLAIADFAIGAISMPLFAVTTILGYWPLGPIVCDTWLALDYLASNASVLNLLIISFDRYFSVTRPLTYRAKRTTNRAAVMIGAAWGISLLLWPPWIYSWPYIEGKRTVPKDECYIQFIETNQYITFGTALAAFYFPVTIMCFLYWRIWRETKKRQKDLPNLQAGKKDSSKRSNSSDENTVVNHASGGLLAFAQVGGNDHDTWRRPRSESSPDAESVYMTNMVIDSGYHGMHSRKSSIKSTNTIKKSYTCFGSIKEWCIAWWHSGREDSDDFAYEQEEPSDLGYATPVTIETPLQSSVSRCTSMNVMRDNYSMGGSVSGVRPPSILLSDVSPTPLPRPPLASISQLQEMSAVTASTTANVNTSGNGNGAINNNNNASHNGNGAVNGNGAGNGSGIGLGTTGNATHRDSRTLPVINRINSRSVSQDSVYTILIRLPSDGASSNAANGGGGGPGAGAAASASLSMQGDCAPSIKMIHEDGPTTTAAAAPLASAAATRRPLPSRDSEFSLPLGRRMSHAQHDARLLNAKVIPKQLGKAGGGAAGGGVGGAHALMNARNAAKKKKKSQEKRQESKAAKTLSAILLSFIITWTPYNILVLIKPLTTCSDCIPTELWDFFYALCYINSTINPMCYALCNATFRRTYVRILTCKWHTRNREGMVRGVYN

[9] = molecular target: T2, Nicotinic acetylcholine receptor alpha 5 subunit (Musca domestica) (UniProt A9XFY4); test: Inhibition of [3H]EPI from nicotinic acetylcholine receptor in Musca domestica (house fly) nerve-cord membranes at […] incubated at 21 degC for 60 min
T2 sequence (whole entry): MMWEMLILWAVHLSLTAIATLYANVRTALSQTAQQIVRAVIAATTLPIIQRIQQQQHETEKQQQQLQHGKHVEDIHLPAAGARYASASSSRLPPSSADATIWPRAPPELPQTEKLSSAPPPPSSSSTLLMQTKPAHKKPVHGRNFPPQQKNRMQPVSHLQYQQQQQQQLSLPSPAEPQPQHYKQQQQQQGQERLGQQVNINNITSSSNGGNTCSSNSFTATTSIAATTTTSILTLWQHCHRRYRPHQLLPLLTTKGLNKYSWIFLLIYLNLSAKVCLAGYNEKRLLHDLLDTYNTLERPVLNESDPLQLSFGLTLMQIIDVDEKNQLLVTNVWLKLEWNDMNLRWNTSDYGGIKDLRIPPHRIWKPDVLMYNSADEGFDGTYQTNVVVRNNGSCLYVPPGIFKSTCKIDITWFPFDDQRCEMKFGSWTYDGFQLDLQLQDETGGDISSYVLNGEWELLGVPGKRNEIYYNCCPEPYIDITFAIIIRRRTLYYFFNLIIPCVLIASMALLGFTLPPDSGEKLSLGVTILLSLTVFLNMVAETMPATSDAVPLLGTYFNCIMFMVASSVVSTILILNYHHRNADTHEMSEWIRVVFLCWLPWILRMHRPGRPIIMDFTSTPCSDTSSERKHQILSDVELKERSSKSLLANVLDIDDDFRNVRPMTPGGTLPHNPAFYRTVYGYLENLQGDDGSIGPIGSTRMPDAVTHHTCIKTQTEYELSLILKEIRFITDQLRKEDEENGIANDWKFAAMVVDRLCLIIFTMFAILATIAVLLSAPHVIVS

[10] = test system: Nilaparvata lugens; test: Insecticidal activity against imidacloprid-resistant Nilaparvata lugens (brown planthopper) fourth-instar larvae reared on compound pre-treated rice seedlings assessed as insect mortality at 100 ppm measured after 7 days; format: functional
[11] = test system: Nilaparvata lugens; test: Insecticidal activity against imidacloprid-sensitive Nilaparvata lugens (brown planthopper) fourth-instar larvae reared on compound pre-treated rice seedlings assessed as insect mortality at 1 ppm measured after 7 days; format: functional
[12] = test system: Nilaparvata lugens; test: Insecticidal activity against imidacloprid-resistant Nilaparvata lugens (brown planthopper) fourth-instar larvae reared on compound pre-treated rice seedlings assessed as insect mortality at 10 ppm measured after 7 days; format: functional
[13] = test system: Nilaparvata lugens; test: Insecticidal activity against imidacloprid-sensitive Nilaparvata lugens (brown planthopper) fourth-instar larvae reared on compound pre-treated rice seedlings assessed as insect mortality at 0.1 ppm measured after 7 days; format: functional
[14] = test system: Nilaparvata lugens; test: Insecticidal activity against imidacloprid-resistant Nilaparvata lugens (brown planthopper) fourth-instar larvae reared on compound pre-treated rice seedlings assessed as insect mortality at 0.1 ppm measured after 7 days; format: functional

Row | SMILES | mortality at 10 ppm [1] [%] | mortality at 200 ppm [2] [%] | mortality at 200 ppm [3] [%] | mortality at 100 ppm [4] [%] | mortality at 10 ppm [5] [%] | mortality at 100 ppm [6] [%] | also measured
1 | C#CC[n+]1cccc(-c2nc(C)ns2)c1 | 10 | 90 | 70 | 50 | 40 | 80 | –
2 | Cc1nsc(-c2cccnc2)n1 | 30 | 100 | 100 | 80 | 80 | 100 | mortality at 1 ppm [7]: 50%; inhibition [8]: 12%; inhibition [9]: 4%; mortality at 100 ppm [10]: 100%; mortality at 1 ppm [11]: 60%; mortality at 10 ppm [12]: 90%
3 | Cc1noc(C2=CCCN(C)C2)n1 | 50 | 100 | 0 | 90 | 70 | 90 | –
4 | O=[N+]([O-])/N=C1\NCCN1Cc1ccc(Cl)nc1 [IMIDACLOPRID] | – | – | – | – | – | – | mortality at 1 ppm [7]: 80%; mortality at 0.1 ppm [13]: 90%; mortality at 1 ppm [11]: 100%; mortality at 10 ppm [12]: 100%; mortality at 0.1 ppm [14]: 50%
5 | Cc1noc(-c2ccc[n+](C)c2)n1 | – | 10 | 10 | – | – | – | –
6 | C=CC[n+]1cccc(-c2nc(C)ns2)c1 | – | 40 | 10 | – | – | – | –
7 | Cc1nsc(-c2ccc[n+](Cc3ccccc3)c2)n1 | – | 20 | 10 | – | – | – | –
8 | Cc1nsc(C2CCCN(C)C2)n1 (stereo not drawn) | – | 30 | 0 | – | – | – | –
9 | Cc1noc(-c2ccncc2)n1 | – | 10 | 0 | – | – | – | –
10 | CCCC[n+]1cccc(-c2nc(C)ns2)c1 | – | 50 | 10 | – | – | – | –
11 | Cc1noc(-c2cccnc2)n1 | – | 90 | 30 | 100 | – | 60 | –
12 | Cc1nsc(-c2ccc[n+](C)c2)n1 | – | 40 | 60 | – | – | – | –
13 | Cc1nsc(C2=CCCN(C)C2)n1 | 0 | 100 | 40 | 30 | 80 | 100 | mortality at 1 ppm [7]: 50%; inhibition [8]: 62%; inhibition [9]: 6%; mortality at 100 ppm [10]: 100%; mortality at 1 ppm [11]: 30%; mortality at 10 ppm [12]: 90%
14 | C#CCN1CCC=C(c2ncns2)C1 | 20 | 100 | 30 | 60 | 30 | 100 | –
15 | CCC(C)[n+]1cccc(-c2nc(C)ns2)c1 (stereo not drawn) | 10 | 100 | 20 | 50 | 90 | 90 | –
16 | CC[n+]1cccc(-c2nc(C)ns2)c1 | – | 20 | 20 | – | – | – | –
17 | CN1CCC=C(c2ncns2)C1 | – | 60 | 30 | – | – | – | –

Row | SMILES | mortality at 10 ppm [1] [%] | mortality at 200 ppm [2] [%] | mortality at 200 ppm [3] [%] | mortality at 100 ppm [4] [%] | mortality at 10 ppm [5] [%] | mortality at 100 ppm [6] [%] | also measured
18 | CCCCN1CCC=C(c2nc(C)ns2)C1 | 10 | 100 | 30 | 20 | 30 | 100 | –
19 | C[n+]1cccc(-c2ncno2)c1 | – | 60 | 20 | – | – | – | –
20 | C[n+]1cccc(-c2ncns2)c1 | – | 80 | 30 | – | – | – | –
21 | CCCCCCCCCCN1CCC=C(c2nc(C)ns2)C1 | – | 30 | 60 | – | – | – | –
22 | Cc1nsc(C2=CCCN(Cc3ccccc3)C2)n1 | 0 | 100 | 10 | 30 | 10 | 100 | –
23 | Cc1nsc(-c2ccncc2)n1 | 20 | 100 | 40 | 40 | 20 | 100 | –
24 | CCCCCCCCCC[n+]1cccc(-c2nc(C)ns2)c1 | – | 0 | 60 | – | – | – | –
25 | Cc1nsc(C2=CCCN(CC(C)C)C2)n1 | 0 | 100 | 50 | 10 | 70 | 100 | –
26 | c1cncc(-c2ncno2)c1 | – | 50 | 20 | – | – | – | –
27 | Cc1nsc(-c2ccc[n+](CC#N)c2)n1 | 10 | 90 | 70 | 40 | 50 | 80 | –
28 | Cc1noc(-c2ccccn2)n1 | – | 10 | 0 | – | – | – | –
29 | C=CCN1CCC=C(c2ncns2)C1 | 10 | 100 | 40 | 60 | 60 | 100 | –
30 | c1cncc(-c2ncns2)c1 | 40 | 100 | 100 | 70 | 60 | 100 | –
31 | CCN1CCC=C(c2nc(C)ns2)C1 | 10 | 100 | 40 | 50 | 40 | 100 | –
32 | Cc1nsc(C2=CCCN(CC#N)C2)n1 | 0 | 100 | 50 | 50 | 10 | 100 | –
33 | Cc1nsc(-c2ccccn2)n1 | – | 40 | 30 | – | – | – | –
